Experimental findings from patent US20220119354A1, “DIAMINO-SUBSTITUTED PYRIDINES AND PYRIMIDINES AS HERBICIDES” (FMC Corporation, priority 2019, published 2022) are described below.

Data set [1] concerns ragweed (common ragweed, Ambrosia elatior). Put plainly: Test A postemergence, ragweed. Type of data set: in vivo. To be noted: Ambrosia artemisiifolia, post-emergence, 240 h, 0 to 100 scale, 0 no effect, 100 complete control, read-out: Plant response rating, Ragweed; for pest or weed control at 125 g/ha: 125 g ai/ha; for pest or weed control at 500 g/ha: 500 g ai/ha. In outline:
(§1)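 Seeds sown in loam–sand blend received a directed soil spray of test chemical in non-phytotoxic solvent with surfactant (preemergence); postemergence plants at 2–10 cm, one- to two-leaf stage, were sprayed with the same formulation. Injury rated visually versus untreated controls after ~10 d in greenhouse, 0–100 scale.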

The test system of data set [2] is ryegrass, Italian (Lolium multiflorum). The data set can be described thus: Test A postemergence, Italian ryegrass. The class given is in vivo. To be noted: Lolium multiflorum, post-emergence, 240 h, 0 to 100 scale, 0 no effect, 100 complete control, read-out: Plant response rating, Ryegrass, Italian; for pest or weed control at 125 g/ha: 125 g ai/ha; for pest or weed control at 500 g/ha: 500 g ai/ha. In short, it runs like this:
as §1

For data set [3] the test system is unchanged. The data set can be described thus: Test A preemergence, Italian ryegrass. To be noted: 0 to 100 scale, 0 is no effect, 100 is complete control. Type of data set: in vivo. In outline: as §1

Each structure is given as a SMILES string.

For `C[C@@H](Nc1ncc(C(F)(F)F)c(N)n1)c1cc2c(F)cccc2s1` [Compound 61, N2-[(1R)-1-(4-fluorobenzo[b]thien-2-yl)ethyl]-5-(trifluoromethyl)-2,4-pyrimidinediamine], the melting point (usually the temperature, or range, at which the solid turns liquid) lay in the range of 137 to 141 °C. Besides, in data set [1], the pest or weed control at 125 g/ha was found to be 60% and the pest or weed control at 500 g/ha was 100%. Further, in data set [2], the pest or weed control at 125 g/ha is 50% and the pest or weed control at 500 g/ha worked out at 90%. In addition, the “Ryegrass, Italian plant response rating” value in data set [3] (125 g ai/ha) amounted to 40. Further, in data set [3] (500 g ai/ha), the “Ryegrass, Italian plant response rating” value amounted to 100.

For `C[C@@H](Nc1ncc(C(F)(F)F)c(N)n1)c1cc2cccc(F)c2o1` [Compound 71, N2-[(1R)-1-(7-fluoro-2-benzofuranyl)ethyl]-5-(trifluoromethyl)-2,4-pyrimidinediamine], the values for the pest or weed control at 125 g/ha in data set [1] and in data set [2] were 80% and 30%, respectively. For the same compound, the pest or weed control at 500 g/ha in data set [1] was 90%; in data set [2], 70%. Further, the “Ryegrass, Italian plant response rating” value in data set [3] (125 g ai/ha) was found to be 20; in data set [3] (500 g ai/ha), 80.

On to `C[C@@H](Nc1ncc(C(F)(F)F)c(N)n1)c1cc2c(F)cccc2o1` [Compound 73, N2-[(1R)-1-(4-fluoro-2-benzofuranyl)ethyl]-5-(trifluoromethyl)-2,4-pyrimidinediamine], for which the pest or weed control at 125 g/ha in data set [1] and in data set [2] was 90% throughout. Moreover, the pest or weed control at 500 g/ha in data set [1] and in data set [2] was 100% each time. The “Ryegrass, Italian plant response rating” value in data set [3] (125 g ai/ha) and in data set [3] (500 g ai/ha) was 100 throughout.

Consider `C[C@@H](Nc1ncc(C(F)(F)F)c(N)n1)c1cc2cccc(F)c2s1` [Compound 75, N2-[(1R)-1-(7-fluorobenzo[b]thien-2-yl)ethyl]-5-(trifluoromethyl)-2,4-pyrimidinediamine], for which the pest or weed control at 125 g/ha in data set [1] came out at 70%; in data set [2], 0%. Further, the pest or weed control at 500 g/ha amounted to 90% in data set [1] and 50% in data set [2]. Moreover, the figures for the “Ryegrass, Italian plant response rating” value in data set [3] (125 g ai/ha) and in data set [3] (500 g ai/ha) were 80 and 100, respectively.
